Source: patent US20240224991A9, “NANO-DISPERSION COMPRISING CELLULOSE NANOCRYSTAL AS PESTICIDE/FUNGICIDE CARRIERS FOR AGRICULTURE AND AQUACULTURE” (priority 2022, published 2024)

Tested on: mealworms
Assay: Pest mortality test, mealworms on sprayed spinach leaves
Assay type: in vivo, mealworms (larval form of the mealworm beetles)
Conditions: 100 ppm DEL, in 2 hours, FIG. 3C
Experimental: Deltamethrin and permethrin/CNC nano-dispersions with agrochemical and CNC mass ratio of 1:100 were prepared according to the said process in example 5, and they are designated as CNC-DEL and CNC-PER, respectively. The resulting nano-dispersions were diluted to 0.1 wt %, 0.5 wt %, 1.0 wt % and 1.5 wt %, where the corresponding active ingredient concentration was around 10 ppm, 50 ppm, 100 ppm and 150 ppm. To perform the pest control test, fresh spinach leaves were spread on a petri dish (10 cm diameter), then 2 mL of the dispersion was sprayed on top (1 mL) and bottom (1 mL) of the leave surface, and 20 active worms were placed on top of the leaves. The survival rate of the works was recorded at set time intervals. In comparison, the pest control efficiency of 1 wt % CNC (0 ppm DEL) and DEL control (100 ppm DEL) were also investigated and compared with 1.0 wt % CNC-DEL (100 ppm DEL). In addition, the pest control efficiency of CNC-PER was compared with the commercial EC pesticide ORTHO® HOME DEFENSE® MAX™ under the same PER dosage.
Both permethrin and deltamethrin are wide spectrum pesticides that belong to synthetic pyrethroids pesticides. Their mode of action is mainly based on contact and stomach toxicity. The pest control efficiency of CNC-DEL and CNC-PER nano-dispersions were evaluated with two model worms, mealworms and waxworms. […]

CC1(C)[C@H](C(=O)O[C@H](C#N)c2cccc(Oc3ccccc3)c2)[C@@H]1C=C(Br)Br [DEL control, Deltamethrin]
mortality at 100 ppm: 30%
